According to US9914698B2, “Stearoyl amino acid salt and preparation method and application thereof” (Shanghai Jiaotong University School of Medicine, priority 2014, dated 2018):
Like-named read-outs stand apart in the source and are kept apart here. Marks after values point to notes of the source that are not given here.

How the values were obtained:
[1] = Equilibrium solubility, shake-flask method; type: physicochemical; details: 37 °C, thermodynamic from solid, read-out: Equilibrium solubility in buffer solution
Protocol: (§1) The shake-flask method was used to test the equilibrium solubility of NsTyr, NsTyr-2K, NsTyr-2Na in water at 37° C. […] The apparent lipid-water distribution coefficient log p of NsTyr-2K, NsTyr-2Na was respectively 1.512 and 1.477. Under different pHs, see Table 1 for the equilibrium solubility test data of NsTyr-2K, NsTyr-2Na; and see Table 2 for the apparent lipid-water distribution coefficient of NsTyr-2K and NsTyr-2Na.

[2] = Apparent lipid-water distribution coefficient; type: physicochemical
Protocol: as §1

[3] = Stability assessment (influencing factors, acceleration and long-term tests, Chinese Pharmacopoeia 2010); type: physicochemical; details: high temperature, high humidity, strong light
Protocol: Considering that prototype drug stearoyl amino acid tend to absorb moisture, cake and become yellowish during long-term storage, the stearoyl amino acid is now converted into a form of active salt thereof. And the stability of NsTyr-2K and NsTyr-2Na was tested as required for bulk pharmaceutical chemicals according to the People's Republic of China Pharmacopoeia 2010.

[4] = Absorption kinetics after intragastric administration; type: in vivo; details: SD rats, oral 200 mg/kg
Protocol: Ten SD rats weighing 150-180 g were randomly divided into two groups, each comprising five, with males and females combined. After intragastric administration of 200 mg/kg of saline solution containing NsTyr and NsTyr-2K, the average blood concentration-time curve thereof was respectively shown in FIG. 2.

[5] = tested on: gerbil model with global ischemia reperfusion injury; assay: Morris water maze test (cerebral ischemia); type: in vivo
From the text: Taking N-stearoyl amino acid potassium NsTyr-2K as an example, a gerbil model with global ischemia reperfusion injury was used to assess the protective role of NsTyr-2K against neurobehavioral disorder caused by cerebral ischemia-reperfusion injury by examining the changing behavioral indexes such as spatial, learning and cognitive functions in the perspective of overall animals during passive dark avoidance test and Morris water maze test.
Up to day 4, for normal animals their latency fell to 29.8+/−12.55 s, and their swimming distance to 3,216.5+/−1,026.46 cm. From day 1 to day 2, there was no evident difference in the average latency before reaching the platform and the swimming distance prior to going onto the platform between the ischemia group of gerbils and any of the other groups. As training sessions increased, the latency and swimming distance of each group of gerbils before reaching the platform was shortened. The gap between the ischemia group and any of the other groups began to widen and reached the record on day 4.

Acute toxicity test = details: mouse, in vivo; oral, Kunming mice
From the text: (§2) After oral administration of NsTyr-2K, the mice were weighed. […] However, their weight followed up rapidly as food intake recovered.
(§3) After 15-day administration of NsTyr-2K, the mouse organs (brain, heart, lung, liver and kidney) were studied to see if there was any change.
(§4) This means that mouse brain tissues had not been severely damaged under such dose, and that NsTyr-2K had high safety. Even so, it is necessary to conduct further long-term safety assessment of any possible side effect of NsTyr-2K on liver and hear in the following medicinal research and to precisely determine the amount of administration required.

Kunming mice = assay: Acute toxicity test; details: mouse, in vivo
From the text: as §2, §3, §4

obese mouse model [6] = assay: Collection and observation of fat and liver tissues of obese mice; type: in vivo, C57BL/6 mice; details: for perirenal fat percentage quality: HFD I blank 1.63 ± 0.10; for Epididymal fat percentage quality: HFD I blank 2.99 ± 0.08; for Liver percentage quality: HFD I blank 3.51 ± 0.07
From the text: 2. Method: After administration test in Embodiment 8, the mice were denied food overnight. Their abdominal cavity was opened to observe abdominal fat content in each group of the mice. Epididymal fat, perirenal fat and liver were separated and weighed.

obese mouse model [7] = assay: H&E staining of fat and liver tissue of obese mice; type: in vivo, C57BL/6 mice
Protocol: 2. Method: Epididymal fat and liver were fixed in 10% neutral formaldehyde solution for 48 h. After paraffin embedding they were made into […] of slices, and stained with hematoxylin-eosin (H&E staining). Light microscope was used to observe the size of fat cells, the structure of liver cells and adipose accumulation.

[8] = both sexes, Sprague-Dawley (SD), rat, blood

SMILES: CCCCCCCCCCCCCCCCCC(=O)N[C@@H](Cc1ccc(O)cc1)C(=O)[O-].[K+] [NsTyr-2K, N-stearoyl tyrosine potassium salt]
- solubility thermodynamic ([1]; aqueous buffer, pH 2.0): 49.3 µg/mL
- solubility thermodynamic ([1]; aqueous buffer, pH 3.0): 58.5 µg/mL
- solubility thermodynamic ([1]; aqueous buffer, pH 4.0): 188 µg/mL
- solubility thermodynamic ([1]; aqueous buffer, pH 5.0): 221 µg/mL
- solubility thermodynamic ([1]; aqueous buffer, pH 6.0): 243 µg/mL
- solubility thermodynamic ([1]; aqueous buffer, pH 7.0): 251 µg/mL
- solubility thermodynamic ([1]; aqueous buffer, pH 8.0): 286 µg/mL
- solubility thermodynamic ([1]; aqueous buffer, pH 9.0): 370 µg/mL
- solubility thermodynamic ([1]; pH 7.4, aqueous buffer): 270 µg/mL
- logP [2]: 1.51
- Apparent lipid-water distribution coefficient Ko/w ([2]; buffer pH 2.0): 76.020
- logP ([2]; buffer pH 2.0, read-out: Apparent lipid-water distribution coefficient LogP): 1.88
- Apparent lipid-water distribution coefficient Ko/w ([2]; buffer pH 3.0): 30.571
- logP ([2]; buffer pH 3.0, read-out: Apparent lipid-water distribution coefficient LogP): 1.49
- Apparent lipid-water distribution coefficient Ko/w ([2]; buffer pH 4.0): 16.020
- logP ([2]; buffer pH 4.0, read-out: Apparent lipid-water distribution coefficient LogP): 1.21
- Apparent lipid-water distribution coefficient Ko/w ([2]; buffer pH 5.0): 21.934
- logP ([2]; buffer pH 5.0, read-out: Apparent lipid-water distribution coefficient LogP): 1.34
- Apparent lipid-water distribution coefficient Ko/w ([2]; buffer pH 6.0): 28.935
- logP ([2]; buffer pH 6.0, read-out: Apparent lipid-water distribution coefficient LogP): 1.46
- Apparent lipid-water distribution coefficient Ko/w ([2]; buffer pH 7.0): 37.855
- logP ([2]; buffer pH 7.0, read-out: Apparent lipid-water distribution coefficient LogP): 1.58
- Apparent lipid-water distribution coefficient Ko/w ([2]; buffer pH 7.4): 16.674
- logP ([2]; buffer pH 7.4, read-out: Apparent lipid-water distribution coefficient LogP): 1.22
- Apparent lipid-water distribution coefficient Ko/w ([2]; buffer pH 8.0): 13.797
- logP ([2]; buffer pH 8.0, read-out: Apparent lipid-water distribution coefficient LogP): 1.14
- Apparent lipid-water distribution coefficient Ko/w ([2]; buffer pH 9.0): 13.140
- logP ([2]; buffer pH 9.0, read-out: Apparent lipid-water distribution coefficient LogP): 1.12
- stability [3]: stable properties
- AUC multiplied, compared with NsTyr [4]: 30 times
- half-life period compared with NsTyr [4]: nearly doubled
- peak concentration Cmax multiplied, compared with NsTyr [4]: ~20 times
- AUC(0-inf) [4, 8]: 3690 ng·h/mL
- AUC(0-t) [4, 8]: 3490 ng·h/mL
- Cmax [4, 8]: 2400 ng/mL
- MRT last [4, 8]: 2.19 h
- Tmax [4, 8]: 0.6 h
- half-life [4, 8]: 2.9 h
- period before finding the underwater platform and swimming distance ([5]; 15 mg/kg, compared with the model group): no obvious difference
- time percentage and swimming distance percentage in the first quadrant (probe test) ([5]; day 5, platform removed, against ischemia group, NsTyr-2K 30 and 60 mg/kg, nimotop control): statistical difference
- period before finding the underwater platform and swimming distance ([5]; days 3 and 4, compared with the ischemia group, NsTyr-2K 30 and 60 mg/kg, nimotop positive control): a shortened period before finding the underwater platform and a shortened swimming distance
- LD50 at 15 days (Acute toxicity test): > 2000 mg/kg
- behavioral abnormality (Kunming mice): no evidence of behavioral abnormality except loss of appetite and weight
- organ coefficient (Kunming mice): exerted certain influence upon mouse brain, heart and liver coefficients
- perirenal fat percentage quality (obese mouse model [6]; 20 mg/kg/day): 1.51 ± 0.07 g/100 g weight
- Epididymal fat percentage quality (obese mouse model [6]; 20 mg/kg/day): 2.94 ± 0.11 g/100 g weight
- Liver percentage quality (obese mouse model [6]; 20 mg/kg/day): 3.47 ± 0.05 g/100 g weight
- perirenal fat percentage quality (obese mouse model [6]; 60 mg/kg/day): 1.37 ± 0.04 g/100 g weight
- Epididymal fat percentage quality (obese mouse model [6]; 60 mg/kg/day): 2.72 ± 0.07 g/100 g weight
- Liver percentage quality (obese mouse model [6]; 60 mg/kg/day): 3.41 ± 0.06***^ g/100 g weight
- perirenal fat percentage quality (obese mouse model [6]; 100 mg/kg/day): 1.26 ± 0.05 g/100 g weight
- Epididymal fat percentage quality (obese mouse model [6]; 100 mg/kg/day): 2.64 ± 0.08 g/100 g weight
- Liver percentage quality (obese mouse model [6]; 100 mg/kg/day): 3.46 ± 0.07***^ g/100 g weight
- abdominal fat pad (obese mouse model [6]; increasing doses 20, 60, 100 mg/kg/day, compared with HFD I): the abdominal fat pad showed a shrinking trend
- abdominal fat quality, compared with Orlistat (obese mouse model [6]; same dose (100 mg/kg)): better effects in reducing abdominal fat quality than Orlistat
- size of epididymal fat cells (obese mouse model [7]; HFD III, HFD IV (NST-2K 60, 100 mg/kg/day) and HFD V (Orlistat 100 mg/kg/day) vs HFD I): evidently smaller fat cells than HFD I
- fat accumulation in liver tissues (obese mouse model [7]; as the administration dose increased, vs HFD I): the accumulation began to ease
- size of epididymal fat cells (obese mouse model [7]; low-dose (20 mg/kg/day)): could not significantly shrink fat cells
